# Laboratory results taken from article PMC8097418, “In Vitro and In Vivo Antibacterial Activities of a Novel Quinolone Compound, OPS-2071, against Clostridioides difficile” (Antimicrobial Agents and Chemotherapy, 2021).
# Read-outs that look alike come from different tables or passages of the source.
# What was measured:
# C. difficile ATCC 700057 [1] = assay: Killing kinetics (time-kill curves); assay type: cell-based, Clostridioides difficile; conditions: time-kill, up to 48 h
# Description: The test tubes were incubated for 48 h. The CFU/ml values of the bacterial suspensions were calculated at 0, 2, 4, 6, 24, and 48 h by culturing 0.1-ml samples of serial 10-fold dilutions on GAM agar plates at 37°C under anaerobic conditions and then counting the number of growing colonies. The CFU/ml value at each time point is from one sample of datum.
# C. difficile ATCC 700057 [2] = assay: MIC by broth dilution (GAM broth); assay type: cell-based, Clostridioides difficile
# Description: (§1) MICs obtained using the agar dilution method were determined visually as described for the CLSI method ([41], [42]). MICs obtained using the broth dilution method were determined visually based on the CLSI method except for using Gifu anaerobic medium (GAM) broth instead of supplemented Brucella broth ([41], [42]).
# [3] = test system: hypervirulent and nonhypervirulent strains of C. difficile (62 strains); assay: MIC distribution against 20 hypervirulent and 42 nonhypervirulent strains; assay type: cell-based, Clostridioides difficile
# [4] = test system: 10 clinical isolates of C. difficile; assay: MIC (broth dilution) and MBC testing, 10 clinical isolates; assay type: cell-based, Clostridioides difficile; conditions: for MBC Range: >99.9% reduction within 48 h; for MIC90 / MBC: Clostridioides difficile; for MBC: read-out: MBC90
# Description: In this test, MIC testing was performed using the broth dilution method as recommended in the CLSI ([41]). After the MICs were determined, 10 μl of the bacterial suspension from the MIC test tube was inoculated onto agar plates and incubated at 37°C. The bacterial colonies were then counted and bacterial numbers were calculated. The MBC was considered to be the lowest concentration of the antibiotics that prevented growth and reduced the inoculum by >99.9% within 48 h, irrespective of counts of survivors at higher antibiotic concentrations.
# [5] = test system: 54 clinically isolated C. difficile strains; assay: MIC by agar dilution against 54 clinically isolated strains; assay type: cell-based, Clostridioides difficile; conditions: Clostridioides difficile, 54 clinically isolated C. difficile strains; for MIC50: read-out: MIC50
# Description: as §1
# C. difficile ATCC 700057 [6] = assay type: cell-based, Clostridioides difficile
# C. difficile ATCC 700057 [7] = assay: Effect of pH on MIC (agar dilution); assay type: cell-based, Clostridioides difficile; conditions: Clostridioides difficile
# C. difficile ATCC 43255 [8] = assay: MIC against the infection strain; assay type: cell-based, Clostridioides difficile
# C. difficile ATCC 700057 [9] = assay: Mutant prevention concentration; assay type: cell-based, Clostridioides difficile; conditions: approximately 10^10 CFU, 3 days
# Description: The mutant prevention concentration was measured by plating approximately 10^10 CFU of C. difficile ATCC 700057 onto a GAM agar plate containing the test agent. Inoculated plates were incubated for 3 days, and the MIC for each antibiotic that prevented the growth of colonies was determined using the agar dilution method as described by the CLSI ([41]). The MIC values of grown colonies were compared to determine which bacteria were resistant. The MPC was defined as the lowest concentration that prevented the growth of resistant bacteria.
# C. difficile ATCC 700057 [10] = assay: MIC by agar dilution (CLSI) against quality control strain; assay type: cell-based, Clostridioides difficile
# Description: as §1
# C. difficile ATCC 700057 [11] = assay: Postantibiotic effect (PAE); assay type: cell-based, Clostridioides difficile; conditions: for Postantibiotic effect: 1 h exposure
# Description: C. difficile ATCC 700057 was cultured in GAM agar and adjusted in GAM broth to approximately 10^6 CFU/ml. The bacterial suspensions were preincubated at 37°C for 1 h. […] After preincubation, test and reference solutions were added to each bacterial suspension in a test tube, and the suspensions were cultured for 1 h. After exposure to the test compounds, bacterial suspensions were washed with GAM broth and cultured for 6 h. […] The PAE was defined according to Craig and Gudmundsson as PAE = T − C, where T is the time required for the viable counts of the exposed bacteria to increase by 1 log10 above the counts observed immediately after washing, and C is the corresponding time for the antibiotic unexposed controls ([44]).
# C. difficile ATCC 43255 [12] = assay: In vivo hamster model of C. difficile infection; parameters: species or system golden Syrian hamsters
# Description: C. difficile ATCC 43255 was cultured on GAM agar, and a bacterial suspension was prepared in saline ([26]). […] Hamsters were infected using oral gavage with 0.5 ml of suspension containing approximately 10^6 CFU of C. difficile (day −1). The next day, the animals were administered clindamycin phosphate (0.2 mg/ml in water) by oral gavage at a dose of 5 ml/kg of body weight, for a final dose of 1 mg/kg (day 0). The animals were allocated to the test groups using a stratified randomization method based on the body weight of each infected animal. The test compounds were administered by oral gavage once daily for 5 days (OPS-2071, 0.008 to 1 mg/kg; fidaxomicin, 0.04 mg/kg to 5 mg/kg; vancomycin, 0.04 to 5 mg/kg [5-fold dilution]). Infected control animals were administered 5% (wt/vol) gum arabic solution by oral gavage. […] The cecal contents of dead animals were tested for toxin A and toxin B using C.Diff Quik Chek Complete (Abbott Diagnostics Medical Co., Ltd., Tokyo, Japan) to confirm that the death of the animal was due to CDI.
# The statistical significance of OPS-2071, fidaxomicin, and vancomycin treatment was analyzed at all doses against vehicle. Survival curves were estimated for each group using the Kaplan-Meier method. Differences in survival homogeneity in each group were evaluated with a log-rank test with Dunnett-type (two-sided) comparison.
# [13] = cited from earlier work
# C. difficile ATCC 43255 [14] = test system: C. difficile ATCC 43255; parameters: method as in PMID 22869573; conditions: cited from earlier work
# [15] = Clostridioides difficile, ATCC700057, broth dilution, retested for the time-kill assay, read-out: MIC
# [16] = Clostridioides difficile, hypervirulent strains (n = 20)
# [17] = Clostridioides difficile, nonhypervirulent strains (n = 42)
# [18] = nonhypervirulent strains (n = 42)
# [19] = 10 clinical isolates, broth dilution
structure (smiles),measurement,setting,value
Cc1ncc([N+](=O)[O-])n1CCO [Metronidazole],concentration needed for an undetectable level to be reached,C. difficile ATCC 700057 [1],over 2 fold MIC
same,MIC,C. difficile ATCC 700057 [2]; [15],0.5 µg/mL
same,MIC50,[3]; [16],0.5 µg/mL
same,MIC90,[3]; [16],1 µg/mL
same,MIC50,[3]; [17],0.25 µg/mL
same,MIC90,[3]; [17],0.5 µg/mL
same,Cumulative percentage of strains,"[3]; Non-hyp (n = 42), MIC […] μg/ml",100%
same,MIC range,[3]; hypervirulent strains (n = 20),0.25 to 16 µg/mL
same,MIC range,[3]; [18],0.25 to 1 µg/mL
same,MBC Range,[4]; 10 clinical isolates,1 to 4 µg/mL
same,MIC range,[4]; [19],1 to 4 µg/mL
same,MIC90,"[4]; 10 clinical isolates, broth dilution, read-out: MIC90",4 µg/mL
same,MBC,[4]; 10 clinical isolates,4 µg/mL
same,MIC90,[5],4 µg/mL
same,MIC50,[5],2 µg/mL
CN[C@H](CC(C)C)C(=O)N[C@H]1C(=O)N[C@@H](CC(N)=O)C(=O)N[C@H]2C(=O)N[C@H]3C(=O)N[C@H](C(=O)N[C@H](C(=O)O)c4cc(O)cc(O)c4-c4cc3ccc4O)[C@H](O)c3ccc(c(Cl)c3)Oc3cc2cc(c3O[C@@H]2O[C@H](CO)[C@@H](O)[C@H](O)[C@H]2O[C@H]2C[C@](C)(N)[C@H](O)[C@H](C)O2)Oc2ccc(cc2Cl)[C@H]1O [Vancomycin],Frequency of spontaneous resistance,C. difficile ATCC 700057 [6]; 4× MIC,<9.17 × 10^–9
same,Frequency of spontaneous resistance,C. difficile ATCC 700057 [6]; 16× MIC,<9.17 × 10^–9
same,Frequency of spontaneous resistance,C. difficile ATCC 700057 [6]; 64× MIC,<9.17 × 10^–9
same,MIC,"C. difficile ATCC 700057 [7]; ATCC700057, pH 6",2 µg/mL
same,MIC,"C. difficile ATCC 700057 [7]; ATCC700057, pH 7",2 µg/mL
same,MIC,"C. difficile ATCC 700057 [7]; ATCC700057, pH 8",2 µg/mL
same,concentration needed for an undetectable level to be reached,C. difficile ATCC 700057 [1],over 2 fold MIC
same,MIC,C. difficile ATCC 700057 [2]; [15],4 µg/mL
same,MIC,"C. difficile ATCC 700057 [2]; broth method, determined for the PAE assay",4 µg/mL
same,MIC,C. difficile ATCC 43255 [8],2 µg/mL
same,MIC50,"[3]; Clostridioides difficile, hypervirulent strains (n = 20), read-out: MIC50",1 µg/mL
same,MIC90,"[3]; Clostridioides difficile, hypervirulent strains (n = 20), read-out: MIC90",1 µg/mL
same,MIC90,"[3]; Clostridioides difficile, nonhypervirulent strains (n = 42), read-out: MIC90",2 µg/mL
same,MIC range,[3]; hypervirulent strains (n = 20),1 to 2 µg/mL
same,MIC50,[3]; [18],1 µg/mL
same,MIC range,[3]; [18],0.5 to 4 µg/mL
same,mutant prevention concentration (MPC),C. difficile ATCC 700057 [9],8 µg/mL
same,MIC,"C. difficile ATCC 700057 [10]; Clostridioides difficile, ATCC700057, quality control strain ATCC 700057, CLSI method, read-out: MIC",2 µg/mL
same,MIC,"C. difficile ATCC 700057 [10]; agar dilution, determined for the spontaneous resistance assay",2 µg/mL
same,PAEs at 4- and 8-fold the MIC,C. difficile ATCC 700057 [11]; 4- and 8-fold the MIC,1.03 to 1.25 h
same,Postantibiotic effect,C. difficile ATCC 700057 [11]; 4× MIC,1.03 h
same,Postantibiotic effect,C. difficile ATCC 700057 [11]; 8× MIC,1.25 h
same,MBC Range,[4]; 10 clinical isolates,4 to 8 µg/mL
same,MIC range,[4]; [19],2 to 4 µg/mL
same,MIC90,[4],4 µg/mL
same,MBC,[4],8 µg/mL
same,MIC90,[5],4 µg/mL
same,MIC50,[5],2 µg/mL
same,50% effective dose (ED50),"C. difficile ATCC 43255 [12]; survival on day 20, oral once daily for 5 days, probit method",1.22 mg/kg/day
same,dosages with significant efficacy compared with vehicle control,"C. difficile ATCC 43255 [12]; survival, log-rank test",≥ 1 mg/kg
same,oral bioavailability,[13],< 10%
CCC[C@@H]1C[C@@H](C(=O)N[C@@H]([C@H]2O[C@H](SC)[C@H](O)[C@@H](O)[C@H]2O)[C@H](C)Cl)N(C)C1 [clindamycin],MIC,C. difficile ATCC 43255 [14],8 µg/mL
